The results in this text go back to patent US20260317546A1, “PRETARGETED BIMODAL IMAGING AGENTS” (KØBENHAVNS UNIVERSITET, priority 2023, published 2026).

Test [1] relates to anti-TAG72 mAb CC49 modified with TCO-tags (CC49-TCO) in LS174T tumor xenografts.
Experimental: This assay employs anti-TAG72 mAb CC49 modified with TCO-tags (CC49-TCO) and [111In]In-DOTA-PEG11-BisPy-Tz (FIG. 1) with well-established performance in pretargeted imaging of TAG72 expressing LS174 tumor xenografts.
LS174T xenograft-bearing mice are injected with CC49-TCO. After allowing for accumulation for 72 h, the tetrazine to be evaluated is injected via the tail vein, followed by [111In]In-DOTA-PEG11-BisPy-Tz after 1 h. in vivo performance of the tetrazine to be evaluated can therefore be correlated to tumor uptake of [111In]In-DOTA-PEG11-BisPy-Tz after 22 h. Increased in vivo performance is reflected by lower tumor uptake (see FIG. 1).
Further, a negative control (−C) and a positive control (+C) are included.
Test [2] has as its system TCO-modified CC49 (CC49-TCO) targeting TAG-72 in human colorectal cancer LS174T xenograft tumors. Description: Pretargeted fluorescence imaging, ex vivo fluorescence measurements of selected organs. It counts as in vivo, Balb/c nude mice. The settings on record: TCO-modified CC49 vs non-modified CC49 (control); compound 8 i.v. 72 h after antibody, 86.5 μg, 116.7 nmol; 1 h post injection; 488 nm excitation, 525/20 emission. The protocol: Pretargeted imaging of compound 8 of Example 1 was tested in vivo.
Pretargeted imaging of compound 8 of Example 1 was tested in vivo using the monoclonal antibody CC49 targeting TAG-72 in human colorectal cancer LS174T xenograft tumors. Tumors were established in 7-8 week old Balb/c nude mice and after 10 days, the animals were injected i.v. with either 50 μg (0.33 nmol) TCO-modified CC49 (CC49-TCO, ~3.5 TCO/mAb), or non-modified CC49 (control) (n=3 per group). After 72 hours, compound 8 (~100 equivalents per TCO, 86.5 μg, 116.7 nmol) in 100 μL of PBS (pH=7.4) was injected i.v.. One hour post injection, selected organs were harvested for ex vivo fluorescence measurements using a Amersham Typhoon 5 laser scanner platform (GE healthcare Europe) using a 488 nm excitation laser and 525/20 emission filter.

As to `CC1=CC(C)=[N+]2C1=C(c1ccnc(-c3nnc(-c4ccc(CN(CC(=O)O)CC(=O)O)cn4)nn3)c1)c1c(C)cc(C)n1[B-]2(F)F` [Compound 7, 2,2′-(((6-(6-(4-(5,5-difluoro-1,3,7,9-tetramethyl-5H-4λ4,5λ4-dipyrrolo[1,2-c:2′,1′-f][1,3,2]diazaborinin-10-yl)pyridin-2-yl)-1,2,4,5-tetrazin-3-yl)pyridin-3-yl)methyl)azanediyl)diacetic acid], the blocking effect in test [1] is 93%. For `CC1=CC(C)=[N+]2C1=C(c1ccc(-c3nnc(-c4ccc(CN(CC(=O)O)CC(=O)O)cn4)nn3)nc1)c1c(C)cc(C)n1[B-]2(F)F` [Compound 8, 2,2′-(((6-(6-(5-(5,5-difluoro-1,3,7,9-tetramethyl-5H-4λ4,5λ4-dipyrrolo[1,2-c:2′,1′-f][1,3,2]diazaborinin-10-yl)pyridin-2-yl)-1,2,4,5-tetrazin-3-yl)pyridin-3-yl)methyl)azanediyl)diacetic acid], in test [2], the “fluorescence in tumor (ex vivo)” value was “higher fluorescence in tumor”. In test [1], this compound displayed a blocking effect of 98%.
